Results published in paper PMC9685055, “Biological activity of new bioactive steroids deriving from biotransformation of cortisone” (Microbial Cell Factories, 2022).

Experiments:
[1] = tested on: primary cultures of rat cerebral cortex neurons; test: Glutamate-induced neurotoxicity, MTT viability; format: cell-based; settings: 10 μM, added 15 min before glutamate; viability 24 h later
Experimental: Primary cultures of cortical neurons have been prepared from 1 day-old male rats [41]. After re-suspension in the plating medium, the cells were counted and then plated on poly-l-lysine (5 μg/mL)-coated dishes at a density of 2.5 × 10^6 cells/dish or on poly-l-lysine (5 μg/mL)-coated 24-well plates at a density of 0.5 × 10^6 cells/dish. The plating medium consisted of Eagle's Basal Medium supplemented with 10% inactivated fetal calf serum, 25 mM KCl, 2 mM glutamine and 100 μg/mL gentamycine. […] Cytosine arabinoside (10 μM) was added within 24 h of plating to prevent glial cell proliferation [41]. The cultures were maintained for 8 days in vitro before experiments.
The cultures were then returned to the incubator in their growth medium. 24 h later, the glutamate-induced neurotoxicity was evaluated by measuring the neuronal viability. The different drugs tested were added 15 min before glutamate exposure and were present until the end of the experiment.
The integrity of mitochondrial enzymes in viable neurons was determined with a colorimetric assay using 3-[4,5-dimethylthial-2-yl]-3, 5-diphenyl-tetrazolinium bromide (MTT) salt, as described by Mosdam [42]. […] The precipitated dye was dissolved in isopropanol with 1 M HCl and colorimetrically (absorbance at 570 nm) quantified. The results were expressed as values of absorbance at 570 nm.

[2] = tested on: Salmonella typhimurium TA98; test: Ames test (plate incorporation), strain TA98; format: cell-based
Experimental: (§1) Mutagenicity assay was performed following the plate incorporation method with the histidine-requiring Salmonella typhimurium mutant TA98 and TA100 strains. All strains (100 µl per plate of fresh overnight cultures) were checked with and without the addition of 0.5 mL of a 5% S9 exogenous metabolic activator (S9 mix). The lyophilized post-mitochondrial supernatant S9 mix (Aroclor 1254-induced, Sprague–Dawley male rat liver in 0.154 M KCl solution, Molecular Toxicology, Inc., Boone, NC, USA), commonly used for the activation of pro-mutagens to mutagenic metabolites, was stored at− 80 °C before use. The concentration tested for all the samples were 1, 5, 10, 50, 100 µL/plate of a stock solution 100 mg/mL.
(§2) A fully-grown culture of the appropriate tester strain (0.1 mL) was added to 2 mL Molten Top Agar (0.6% agar, 0.6% NaCl, 0.5 mM L-histidine/biotin solution) at 46 °C, together with 0.1 mL of each sample solution at different concentrations, and 0.5 mL S9 mix for assays with metabolic activation or 0.5 mL of phosphate buffer pH 7.4 to test without metabolic activation. The ingredients were thoroughly mixed and poured onto minimal glucose agar plates (1.5% agar in 2% Vogel–Bonner medium E with 5% glucose solution).
(§3) DMSO was used as a negative control (100 µl/plate). Positive controls were prepared as follows: 2-aminoanthracene (2 µg/plate) and 2-nitrofluorene (2 µg/plate) for TA98 with and without metabolic activator (S9 mix) respectively; 2-aminoanthracene (2 µg/plate) and sodium azide (2 µg/plate) for TA100, with and without metabolic activator (S9 mix) respectively. The plates were incubated at 37 °C for 72 h and then the his^+ revertants were checked and counted using a Colony Counter 560 Suntex (Antibioticos, Italy). A sample was considered mutagenic when the observed number of colonies was at least twofold over the spontaneous level of revertants. All determinations were made in triplicate. Relative standard deviations were computed using the statistical software […] 6.0 (StatSoft Italia srl).

[3] = biological target: T1, cyclooxygenase (COX) (Ovis aries, UniProt P05979); test: Cyclooxygenase inhibitory assay (fluorescence COX activity kit); format: biochemical; settings: purified COX preparation, 0.1, 1, 10 and 100 µM, 5 min at 25 °C
T1 construct: purchased Cayman 700200
T1 sequence (P05979 25-600): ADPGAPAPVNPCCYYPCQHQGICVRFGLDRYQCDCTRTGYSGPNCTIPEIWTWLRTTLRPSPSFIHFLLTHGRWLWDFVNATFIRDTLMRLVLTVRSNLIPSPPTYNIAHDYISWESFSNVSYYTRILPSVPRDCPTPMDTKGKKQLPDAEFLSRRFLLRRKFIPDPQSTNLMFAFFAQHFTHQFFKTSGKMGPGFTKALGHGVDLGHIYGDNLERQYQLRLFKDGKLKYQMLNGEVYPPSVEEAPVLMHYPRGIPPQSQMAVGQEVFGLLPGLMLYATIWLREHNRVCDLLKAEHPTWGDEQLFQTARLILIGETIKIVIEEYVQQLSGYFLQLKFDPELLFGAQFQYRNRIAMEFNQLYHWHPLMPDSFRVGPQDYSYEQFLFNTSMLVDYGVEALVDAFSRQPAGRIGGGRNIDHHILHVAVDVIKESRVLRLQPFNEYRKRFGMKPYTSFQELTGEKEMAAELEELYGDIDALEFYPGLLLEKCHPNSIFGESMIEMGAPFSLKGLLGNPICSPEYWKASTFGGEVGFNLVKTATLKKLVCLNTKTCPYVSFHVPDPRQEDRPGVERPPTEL
Experimental: Cyclooxygenase (COX) activity assay was determined by using a fluorescence COX activity assay kit (Cayman, No. 700200) for detecting COX-1 and COX-2 activity in purified enzyme and tissue homogenate preparations. The assay was conducted by monitoring the appearance of fluorescent compound resofurin in accordance to the supplier recommendation. Aspirin (acetylsalicylic acid; 50 µM) served as positive control. The test compounds were dissolved in 1–2% DMSO (v/v) at 4 different concentrations (0.1, 1, 10 and 100 µM) and added to a purified COX preparation. A 1–2% DMSO solution was added to control plates. The plates were shaken for a few seconds and incubated for 5 min at 25 °C. The fluorescence was measured by using an excitation wavelength of 540 nm and an emission wavelength of 590 nm. Average fluorescent values were calculated for all the samples (n = 3/group) in order to determine the percentage of inhibition in respect to control (i.e. untreated) plates.

[4] = tested on: Salmonella typhimurium TA100; test: Ames test (plate incorporation), strain TA100; format: cell-based
Experimental: as §1, §2, §3

[5] = tested on: IL-1α secretion in TNFα-stimulated HaCaT cells; test: TNFα-induced IL-1α secretion, ELISA; format: cell-based, human; settings: 10 μM pretreatment 24 h, then 10 ng/mL TNFα 1 h, supernatant 24 h later
Experimental: HaCaT cells were cultured with Dulbecco’s modified Eagle’s medium High Glucose (Lonza, Milan, Italy) supplemented with 10% FBS, 100 U/mL penicillin, 100 μg/mL streptomycin and 2 mM L-glutamine as previously described. Cells were maintained in a humidified incubator at 37 °C with 5% CO2 and incubated until the monolayer was 80% confluent. Medium was changed every 2 days.
HaCaT cells were pretreated with or without 10 μM of both SCA and SCB for 24 h. Stock solutions of the two compounds were prepared in DMSO immediately before use and diluted to the final concentration in the culture medium. In some sets of experiments, betamethasone-17-valerate (10 µg/mL) served as a positive control; dimethyl sulfoxide (DMSO) served as a solvent control. After the pretreatments, cells were stimulated with 10 ng/mL TNFα for 1 h to induce the NFκB signaling pathway. Then, media were replaced with fresh culture medium. […]
IL-1α secretion, after the treatment with 10 and 20 µM of each compound and together at the same concentrations, was assayed by a commercially available ELISA kit (Thermo Scientific, Italy). […] The optical absorbance was measured with a spectrophotometer microplate reader at 450 nm and correction at 530 nm. Final concentrations were calculated by interpolation with a standard curve of Recombinant Human IL-1α provided by the kit and results expressed as pg/mL.

[6] = TA98, + S9, 1 µL/plate of a stock solution 100 mg/mL
[7] = TA98, + S9, 5 µL/plate of a stock solution 100 mg/mL
[8] = TA98, + S9, 10 µL/plate of a stock solution 100 mg/mL
[9] = TA98, + S9, 50 µL/plate of a stock solution 100 mg/mL
[10] = TA98, + S9, 100 µL/plate of a stock solution 100 mg/mL
[11] = TA98, − S9, 1 µL/plate of a stock solution 100 mg/mL
[12] = TA98, − S9, 5 µL/plate of a stock solution 100 mg/mL
[13] = TA98, − S9, 10 µL/plate of a stock solution 100 mg/mL
[14] = TA98, − S9, 50 µL/plate of a stock solution 100 mg/mL
[15] = TA98, − S9, 100 µL/plate of a stock solution 100 mg/mL
[16] = TA100, + S9, 1 µL/plate of a stock solution 100 mg/mL
[17] = TA100, + S9, 5 µL/plate of a stock solution 100 mg/mL
[18] = TA100, + S9, 10 µL/plate of a stock solution 100 mg/mL
[19] = TA100, + S9, 50 µL/plate of a stock solution 100 mg/mL
[20] = TA100, + S9, 100 µL/plate of a stock solution 100 mg/mL
[21] = TA100, − S9, 1 µL/plate of a stock solution 100 mg/mL
[22] = TA100, − S9, 5 µL/plate of a stock solution 100 mg/mL
[23] = TA100, − S9, 10 µL/plate of a stock solution 100 mg/mL
[24] = TA100, − S9, 50 µL/plate of a stock solution 100 mg/mL
[25] = TA100, − S9, 100 µL/plate of a stock solution 100 mg/mL

`Cc1ccc(O)c2c1CCC1C3CC[C@](O)([C@H](O)CO)[C@@]3(C)CC(=O)[C@@]21O` (stereo partly drawn) [SCB, 1,9β,17,20β,21‐ pentahydoxy‐4‐methyl‐19‐nor‐9β‐pregna‐1,3,5(10)‐trien‐11‐one] was tested, and the “effect on glutamate-induced neurotoxicity (cell viability, MTT)” value [1] was “partially reduced”, the “genotoxic activity (Ames test)” value [2] was “For none of the samples genotoxic activity emerged” and the “average number of revertant colonies” value [2, 6] was 34. The “t/c (revertant colonies in treated plates/untreated plates)” value [2, 6] was 1.1, the “average number of revertant colonies” value [2, 7] was 35 and the “t/c (revertant colonies in treated plates/untreated plates)” value [2, 7] was 1.1. The “average number of revertant colonies” value [2, 8] was 35, the “t/c (revertant colonies in treated plates/untreated plates)” value [2, 8] was 1.1 and the “average number of revertant colonies” value [2, 9] was 31. The “t/c (revertant colonies in treated plates/untreated plates)” value [2, 9] was 1.0, the “average number of revertant colonies” value [2, 10] was 30 and the “t/c (revertant colonies in treated plates/untreated plates)” value [2, 10] was 0.9. For the same compound, the “average number of revertant colonies” value [2, 11] was 24, the “t/c (revertant colonies in treated plates/untreated plates)” value [2, 11] was 1.0 and the “average number of revertant colonies” value [2, 12] was 23. For the same compound, the “t/c (revertant colonies in treated plates/untreated plates)” value [2, 12] was 0.9, the “average number of revertant colonies” value [2, 13] was 22 and the “t/c (revertant colonies in treated plates/untreated plates)” value [2, 13] was 0.9. The “average number of revertant colonies” value [2, 14] was 21, the “t/c (revertant colonies in treated plates/untreated plates)” value [2, 14] was 0.9 and the “average number of revertant colonies” value [2, 15] was 19. The “t/c (revertant colonies in treated plates/untreated plates)” value [2, 15] was 0.8, the “effect on COX activity” value [3] was “inhibited COX activity at all concentrations tested in a dose-dependent trend” and the “genotoxic activity (Ames test)” value [4] was “For none of the samples genotoxic activity emerged”. The “average number of revertant colonies” value [4, 16] was 190, the “t/c (revertant colonies in treated plates/untreated plates)” value [4, 16] was 1.0 and the “average number of revertant colonies” value [4, 17] was 194. The “t/c (revertant colonies in treated plates/untreated plates)” value [4, 17] was 1.0, the “average number of revertant colonies” value [4, 18] was 193 and the “t/c (revertant colonies in treated plates/untreated plates)” value [4, 18] was 1.0. The “average number of revertant colonies” value [4, 19] was 189, the “t/c (revertant colonies in treated plates/untreated plates)” value [4, 19] was 1.0 and the “average number of revertant colonies” value [4, 20] was 195. For the same compound, the “t/c (revertant colonies in treated plates/untreated plates)” value [4, 20] was 1.0, the “average number of revertant colonies” value [4, 21] was 157 and the “t/c (revertant colonies in treated plates/untreated plates)” value [4, 21] was 0.9. For the same compound, the “average number of revertant colonies” value [4, 22] was 169, the “t/c (revertant colonies in treated plates/untreated plates)” value [4, 22] was 1.0 and the “average number of revertant colonies” value [4, 23] was 164. For the same compound, the “t/c (revertant colonies in treated plates/untreated plates)” value [4, 23] was 1.0, the “average number of revertant colonies” value [4, 24] was 169 and the “t/c (revertant colonies in treated plates/untreated plates)” value [4, 24] was 1.0. For the same compound, the “average number of revertant colonies” value [4, 25] was 180, the “t/c (revertant colonies in treated plates/untreated plates)” value [4, 25] was 1.1 and the “effect on TNFα-triggered IL-1α release” value [5] was “markedly inhibited”.
